Data set [1] is described as follows: Plasma oxybutynin and desethyloxybutynin in rabbits with vaginal inserts. In kind it is in vivo, rabbit. The note with it: for plasma values at all time periods (day 1-7): 5.0 mg/day vaginal insert; for plasma concentration: days 1-7. As for the experimental part:
12 rabbits were separated into 4 groups of 3 rabbits each. Under pentobarbital anesthesia (25 mg/kg, iv) A cylinder-shaped, curved silastic insert was placed in the vagina of each rabbit. This was accomplished by the following: a midline laparotomy was performed and after transvaginal insertion the implant was anchored with a single 2.0 silk suture through the outer vaginal wall and knotted to a 1 cm section of a medical-grade tubing to avoid damage to the vaginal wall. The inserts in group one contained vehicle, the inserts in groups 2-4 were calculated to release oxybutynin at rates of 0.5 mg/day; 1 mg/day; and 5 mg/day respectively. The inserts remained in place for 7 days. Samples of blood (2 ml) were collected at 12:00 noon on days 1, 3, 5 and 7. After the last blood sample was obtained, each rabbit was sedated and cystometries were performed. Immediately after the cystometry, the rabbit was euthanized, the lower urinary tract including the vagina was removed and evaluated for irritation. In addition, the bladder was excised and weighed.
The samples of blood were frozen and subsequently analyzed. The oxybutynin and desethyloxybutynin concentrations were quantified.

The conditions of data set [2]: oral administration of oxybutynin; cited from earlier work.

For the compound `CCN(CC)CC#CCOC(=O)C(O)(c1ccccc1)C1CCCCC1` (stereo not drawn) [oxybutynin, 4-diethylamino-2-butynylphenylcyclohexylglycolate], in data set [1] (0.5 mg/day vaginal insert), the “change of plasma concentration between day 1 and 3” value is given as “increase”; the “plasma concentration course between days 3 and 7” value is on record as “stable concentration”. In addition, in data set [1] (1.0 mg/day vaginal insert), the “change of plasma concentration between day 1 and 3” value is “increase”; the “plasma concentration course between days 3 and 7” value is “stable concentration”. Moreover, the “plasma values at all time periods (day 1-7)” value in data set [1] is “stable plasma values”. For the same compound, in data set [1] (vaginal inserts, FIG. 18), the “stable plasma concentration of 1.0 mg/day group relative to 0.5 mg/day group” value is “approximately twice” and the “stable plasma concentration of 5.0 mg/day group relative to 1.0 mg/day group” value is on record as “approximately 4 fold”.
For the compound `CCNCC#CCOC(=O)C(O)(c1ccccc1)C1CCCCC1` (stereo not drawn) [N-desethyloxybutynin], the plasma concentration result in data set [1] (0.5 mg/day vaginal insert) is listed as “below the level of detection”. For the same compound, the plasma concentration result in data set [1] (1.0 mg/day vaginal insert) is “below the level of detection”. In data set [1], the “plasma values at all time periods (day 1-7)” value is given as “stable plasma values”. Further, in data set [2], the “AUC (area under the plasma time concentration curve) of the metabolite relative to oxybutynin” value is reported as 10-12 times and the “peak blood concentration of the metabolite relative to oxybutynin” value is on record as 6-9 times higher.

Source of the values: patent US6436428B1, “Device and method for treating urinary incontinence in females” (Enhance Pharmaceuticals, Inc., priority 2000, dated 2002).
